This assay addresses T1, α-glucosidase (Saccharomyces cerevisiae, UniProt P53341).
T1 construct: the yeast form of α-glucosidase, which was extracted from Saccharomyces cerevisiae; purchased Sigma-Aldrich; host or cells: Saccharomyces cerevisiae (extracted)
In words: Anti-α-glucosidase assay (p-nitrophenyl-α-D-glucopyranoside substrate, absorbance 405 nm). It counts as biochemical. The conditions noted are these: for Inhibation: IC50 determination curve; for inhibition at 750 µM: read-out: In (%), inhibition percentage against α-glucosidase; for decrease of inhibitory activity relative to un-substituted derivative 13a: methyl group added to phenyl ring of 13a; for inhibitory activity, times more potent than acarbose: ratio of IC50 values vs acarbose. Here is the method:
After this time, the p-nitrophenyl-α-D-glucopyranoside (25 μL, 4 mM) was added to the latter plate and allowed to incubate at 37 °C for 20 min. […] The percentage of inhibition (% inhibition) for each sample was calculated using the formula “[(Abs control − Abs sample)/Abs control] × 100”, and IC50 values were obtained from non-linear regression curve using the Logit method.[24]

The mark [1] stands for this setting: IC50 (from IC50 determination curves, supplement), logarithmic fit of inhibition vs Conc., unit inferred.
Setting [2] is: IC50, yeast α-glucosidase, mean ± SD, at least three experiments.

Results on eleven molecules are retold here after paper PMC12523282, “New 5,6-diphenyl-1,2,4-triazine-hydrazineylidene-phenoxy-1,2,3-triazole-acetamide derivatives as potent synthetic α-glucosidase inhibitors” (RSC Advances, 2025).

T1 sequence (P53341 whole entry): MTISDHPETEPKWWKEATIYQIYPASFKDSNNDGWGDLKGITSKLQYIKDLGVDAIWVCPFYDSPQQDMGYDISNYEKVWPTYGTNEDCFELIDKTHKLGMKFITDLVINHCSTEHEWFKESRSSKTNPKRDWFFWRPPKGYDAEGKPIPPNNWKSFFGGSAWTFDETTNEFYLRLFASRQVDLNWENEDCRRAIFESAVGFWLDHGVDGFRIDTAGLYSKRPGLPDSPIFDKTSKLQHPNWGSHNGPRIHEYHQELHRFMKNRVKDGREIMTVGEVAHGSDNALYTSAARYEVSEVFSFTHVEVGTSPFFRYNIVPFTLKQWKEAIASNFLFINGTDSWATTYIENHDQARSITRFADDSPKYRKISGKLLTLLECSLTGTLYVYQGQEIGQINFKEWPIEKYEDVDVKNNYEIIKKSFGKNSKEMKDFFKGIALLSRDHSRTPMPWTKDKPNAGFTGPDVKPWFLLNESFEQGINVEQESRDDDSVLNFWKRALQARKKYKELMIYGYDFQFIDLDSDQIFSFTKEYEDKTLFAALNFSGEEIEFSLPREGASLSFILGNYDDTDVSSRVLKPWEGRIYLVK

The term IC50 denotes the concentration that gives 50% inhibition. A higher IC50 goes with lower potency. The inhibition is the share of the control response that was lost under treatment. Take `O=C(Cn1cc(COc2ccc(/C=N/Nc3nnc(-c4ccccc4)c(-c4ccccc4)n3)cc2)nn1)Nc1ccccc1` [Compound 13a, (E)-2-(4-((4-((2-(5,6-Diphenyl-1,2,4-triazin-3-yl)hydrazineylidene)methyl)phenoxy)methyl)-1H-1,2,3-triazol-1-yl)-N-phenylacetamide]: the inhibition at 750 µM came out at 95%. Under “Conc. 15 (unit not given)”, the Inhibation was 76.53. For the setting “Conc. 30 (unit not given)”, the Inhibation is on record as 81.33. The Inhibation (Conc. 60 (unit not given)) was 89. This molecule had an Inhibation (Conc. 90 (unit not given)) of 93. Moreover, the Inhibation (Conc. 120 (unit not given)) is given as 94. Also, the IC50 under setting [1] is < 15 µM.
With `Cc1ccccc1NC(=O)Cn1cc(COc2ccc(/C=N/Nc3nnc(-c4ccccc4)c(-c4ccccc4)n3)cc2)nn1` [Compound 13b, (E)-2-(4-((4-((2-(5,6-Diphenyl-1,2,4-triazin-3-yl)hydrazineylidene)methyl)phenoxy)methyl)-1H-1,2,3-triazol-1-yl)-N-(o-tolyl)acetamide], the “decrease of inhibitory activity relative to un-substituted derivative 13a” value is reported as 15.6 fold and the inhibition at 750 µM is 98%. Where the note is “Conc. 15 (unit not given)”, this molecule yielded an Inhibation of 54.87. Moreover, the Inhibation (Conc. 30 (unit not given)) was found to be 67. Also, the Inhibation (Conc. 60 (unit not given)) is given as 83. For the same molecule, the Inhibation (Conc. 90 (unit not given)) is on record as 93. Besides, under setting [1], the IC50 was determined as 12.5 µM. The same molecule gave an IC50 under setting [2] of 12.5 ± 0.21 µM.
With `Cc1cccc(NC(=O)Cn2cc(COc3ccc(/C=N/Nc4nnc(-c5ccccc5)c(-c5ccccc5)n4)cc3)nn2)c1` [Compound 13c, (E)-2-(4-((4-((2-(5,6-Diphenyl-1,2,4-triazin-3-yl)hydrazineylidene)methyl)phenoxy)methyl)-1H-1,2,3-triazol-1-yl)-N-(m-tolyl)acetamide], the “decrease of inhibitory activity relative to un-substituted derivative 13a” value was determined as 2.25 fold and the inhibition at 750 µM amounted to 100%. This molecule also returned an Inhibation (Conc. 15 (unit not given)) of 74.8. Where the note is “Conc. 30 (unit not given)”, this molecule gave an Inhibation of 80.67. This molecule also displayed an Inhibation (Conc. 60 (unit not given)) of 93. Besides, the Inhibation (Conc. 90 (unit not given)) was 96. For the same molecule, under “Conc. 120 (unit not given)”, the Inhibation was determined as 97. Under setting [1], the IC50 is < 15 µM.
For the molecule `Cc1ccc(NC(=O)Cn2cc(COc3ccc(/C=N/Nc4nnc(-c5ccccc5)c(-c5ccccc5)n4)cc3)nn2)c(C)c1` [Compound 13d, (E)-N-(2,4-Dimethylphenyl)-2-(4-((4-((2-(5,6-diphenyl-1,2,4-triazin-3-yl)hydrazineylidene)methyl)phenoxy)methyl)-1H-1,2,3-triazol-1-yl)acetamide], the inhibition at 750 µM is 75%. For the setting “Conc. 15 (unit not given)”, this molecule displayed an Inhibation of 61.12. The molecule also yielded an Inhibation (Conc. 30 (unit not given)) of 65.17. This molecule also gave an Inhibation (Conc. 60 (unit not given)) of 68. For the setting “Conc. 90 (unit not given)”, this molecule displayed an Inhibation of 72. For the same molecule, the Inhibation (Conc. 120 (unit not given)) was found to be 74. In addition, the 50% inhibitory concentration (IC50) under setting [1] was < 15 µM.
For `CCc1ccc(NC(=O)Cn2cc(COc3ccc(/C=N/Nc4nnc(-c5ccccc5)c(-c5ccccc5)n4)cc3)nn2)cc1` [Compound 13e, (E)-2-(4-((4-((2-(5,6-Diphenyl-1,2,4-triazin-3-yl)hydrazineylidene)methyl)phenoxy)methyl)-1H-1,2,3-triazol-1-yl)-N-(4-ethylphenyl)acetamide], the inhibition at 750 µM was 100%. This molecule returned an Inhibation (Conc. 15 (unit not given)) of 69.6. Further, the Inhibation (Conc. 30 (unit not given)) was 82.93. The Inhibation (Conc. 60 (unit not given)) stood at 95. Besides, the 50% inhibitory concentration (IC50) under setting [1] was < 15 µM. Further, the “potency relative to 4-methoxy derivative 13f” value (more potent than 13f) is recorded as “around 3 fold”.
For `COc1ccc(NC(=O)Cn2cc(COc3ccc(/C=N/Nc4nnc(-c5ccccc5)c(-c5ccccc5)n4)cc3)nn2)cc1` [Compound 13f, (E)-2-(4-((4-((2-(5,6-Diphenyl-1,2,4-triazin-3-yl)hydrazineylidene)methyl)phenoxy)methyl)-1H-1,2,3-triazol-1-yl)-N-(4-methoxyphenyl)acetamide], the inhibition at 750 µM turned out to be 100%. Besides, under “Conc. 15 (unit not given)”, the Inhibation turned out to be 56. Also, for the setting “Conc. 30 (unit not given)”, the Inhibation was 72.67. For the setting “Conc. 60 (unit not given)”, this molecule yielded an Inhibation of 89. The same molecule gave an Inhibation (Conc. 90 (unit not given)) of 98. Also, half-maximal inhibition under setting [1] (IC50) was put at 10.9 µM. Under setting [2], this molecule displayed a half-inhibitory concentration (IC50) of 10.9 ± 0.24 µM.
For `O=C(Cn1cc(COc2ccc(/C=N/Nc3nnc(-c4ccccc4)c(-c4ccccc4)n3)cc2)nn1)Nc1ccccc1F` [Compound 13g, (E)-2-(4-((4-((2-(5,6-Diphenyl-1,2,4-triazin-3-yl)hydrazineylidene)methyl)phenoxy)methyl)-1H-1,2,3-triazol-1-yl)-N-(2-fluorophenyl)acetamide], the inhibition at 750 µM was determined as 79%. The molecule also came in with an Inhibation (Conc. 15 (unit not given)) of 69.05. In addition, for the setting “Conc. 30 (unit not given)”, the Inhibation amounted to 72.24. Moreover, the Inhibation (Conc. 60 (unit not given)) was found to be 76. The molecule further yielded an Inhibation (Conc. 90 (unit not given)) of 78. Further, under setting [1], the IC50 was < 15 µM.
For the molecule `O=C(Cn1cc(COc2ccc(/C=N/Nc3nnc(-c4ccccc4)c(-c4ccccc4)n3)cc2)nn1)Nc1ccccc1Cl` [Compound 13h, (E)-N-(2-Chlorophenyl)-2-(4-((4-((2-(5,6-diphenyl-1,2,4-triazin-3-yl)hydrazineylidene)methyl)phenoxy)methyl)-1H-1,2,3-triazol-1-yl)acetamide], the “inhibitory activity, times more potent than acarbose” value was ~3947 fold and the inhibition at 750 µM is 87%. The same molecule showed an Inhibation (Conc. 15 (unit not given)) of 75.34. The same molecule showed an Inhibation (Conc. 30 (unit not given)) of 79.31. The molecule also displayed an Inhibation (Conc. 60 (unit not given)) of 83. This molecule returned an Inhibation (Conc. 90 (unit not given)) of 86. In addition, under setting [1], the IC50 was < 15 µM.
`O=C(Cn1cc(COc2ccc(/C=N/Nc3nnc(-c4ccccc4)c(-c4ccccc4)n3)cc2)nn1)Nc1cccc(Cl)c1` [Compound 13i, (E)-N-(3-Chlorophenyl)-2-(4-((4-((2-(5,6-diphenyl-1,2,4-triazin-3-yl)hydrazineylidene)methyl)phenoxy)methyl)-1H-1,2,3-triazol-1-yl)acetamide]: the inhibition at 750 µM turned out to be 100%. The Inhibation (Conc. 15 (unit not given)) stood at 53.4. The Inhibation (Conc. 30 (unit not given)) is given as 74.73. This molecule had an Inhibation (Conc. 60 (unit not given)) of 84. This molecule displayed an Inhibation (Conc. 90 (unit not given)) of 98. Besides, under setting [1], half-maximal inhibition (IC50) required 11.7 µM. The half-maximal inhibitory concentration (IC50) under setting [2] is 11.7 ± 0.18 µM.
Turning to `O=C(Cn1cc(COc2ccc(/C=N/Nc3nnc(-c4ccccc4)c(-c4ccccc4)n3)cc2)nn1)Nc1ccc(Br)cc1` [Compound 13k, (E)-N-(4-Bromophenyl)-2-(4-((4-((2-(5,6-diphenyl-1,2,4-triazin-3-yl)hydrazineylidene)methyl)phenoxy)methyl)-1H-1,2,3-triazol-1-yl)acetamide], the inhibition at 750 µM worked out at 69%. Besides, the Inhibation (Conc. 15 (unit not given)) was found to be 49.91. The same molecule registered an Inhibation (Conc. 30 (unit not given)) of 56.12. This molecule also gave an Inhibation (Conc. 60 (unit not given)) of 60. This molecule registered an Inhibation (Conc. 90 (unit not given)) of 65. For the setting “Conc. 120 (unit not given)”, the Inhibation is 67. The same molecule displayed an IC50 under setting [1] of 15.3 µM. Under setting [2], this molecule gave an IC50 of 15.3 ± 0.29 µM.
For the molecule `O=C(Cn1cc(COc2ccc(/C=N/Nc3nnc(-c4ccccc4)c(-c4ccccc4)n3)cc2)nn1)Nc1ccccc1[N+](=O)[O-]` [Compound 13l, (E)-2-(4-((4-((2-(5,6-Diphenyl-1,2,4-triazin-3-yl)hydrazineylidene)methyl)phenoxy)methyl)-1H-1,2,3-triazol-1-yl)-N-(2-nitrophenyl)acetamide], the “inhibitory activity, times more potent than acarbose” value amounted to 21.9 fold and the inhibition at 750 µM worked out at 69%. The Inhibation (Conc. 15 (unit not given)) is reported as 37.76. Also, the Inhibation (Conc. 30 (unit not given)) stood at 48.45. Where the note is “Conc. 60 (unit not given)”, this molecule gave an Inhibation of 59. Further, under “Conc. 90 (unit not given)”, the Inhibation was determined as 65. Where the note is “Conc. 120 (unit not given)”, this molecule had an Inhibation of 67. The molecule further returned an IC50 under setting [1] of 34.2 µM. Further, the IC50 under setting [2] is 34.2 ± 0.57 µM.
